How the values were obtained:
[1] = molecular target: p110δ/p85α (Homo sapiens (Human), UniProt O00329); experiment: PI3K δ inhibition assay (TLC lipid kinase or HTRF); assay type: biochemical
Summary of the method: (§1)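 IC50 from TLC lipid kinase assay (25 mM HEPES pH 7.4, 10 mM MgCl2, 100 μg/ml phosphatidylinositol, 10 or 100 μM γ-32P-ATP, 5 min RT, phosphorimager) at 10–12 two-fold dilutions, or HTRF (10 μM PIP2, 10 μM ATP, 1 h RT) measuring PIP3 by TR-FRET; 2% DMSO final.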

[2] = molecular target: p110β/p85α (Homo sapiens, UniProt P42338); experiment: PI3K β inhibition assay (TLC lipid kinase or HTRF); assay type: biochemical; details: read-out: PI3K β IC50
Summary of the method: as §1

[3] = molecular target: p110α/p85α (Homo sapiens (Human), UniProt P42336); experiment: PI3K α inhibition assay (TLC lipid kinase or HTRF); assay type: biochemical
Summary of the method: as §1

[4] = system: Balb/c splenic B cells; experiment: B cell activation and proliferation assay (Alamar Blue); assay type: cell-based, mouse; details: Mus musculus, B-cell
Method: The ability of one or more subject compounds to inhibit B cell activation and proliferation is determined according to standard procedures known in the art. For example, an in vitro cellular proliferation assay is established that measures the metabolic activity of live cells. The assay is performed in a 96 well microtiter plate using Alamar Blue reduction. Balb/c splenic B cells are purified over a Ficoll-Paque™ PLUS gradient followed by magnetic cell separation using a MACS B cell Isolation Kit (Miletenyi). Cells are plated in 90 ul at 50,000 cells/well in B Cell Media (RPMI+10% FBS+Penn/Strep+50 uM bME+5 mM HEPES). A compound disclosed herein is diluted in B Cell Media and added in a 10 ul volume. Plates are incubated for 30 min at 37 C and 5% CO2 (0.2% DMSO final concentration). A 50 ul B cell stimulation cocktail is then added containing either 10 ug/ml LPS or 5 ug/ml F(ab′)2 Donkey anti-mouse IgM plus 2 ng/ml recombinant mouse IL4 in B Cell Media. Plates are incubated for 72 hours at 37° C. and 5% CO2. A volume of 15 uL of Alamar Blue reagent is added to each well and plates are incubated for 5 hours at 37 C and 5% CO2. Alamar Blue fluoresce is read at 560Ex/590Em, and IC50 or EC50 values are calculated using GraphPad Prism 5.

[5] = molecular target: p110γ (Homo sapiens (Human), UniProt P48736); experiment: PI3K γ inhibition assay (TLC lipid kinase or HTRF); assay type: biochemical
Summary of the method: as §1

Sequence of p110γ (P48736 whole entry): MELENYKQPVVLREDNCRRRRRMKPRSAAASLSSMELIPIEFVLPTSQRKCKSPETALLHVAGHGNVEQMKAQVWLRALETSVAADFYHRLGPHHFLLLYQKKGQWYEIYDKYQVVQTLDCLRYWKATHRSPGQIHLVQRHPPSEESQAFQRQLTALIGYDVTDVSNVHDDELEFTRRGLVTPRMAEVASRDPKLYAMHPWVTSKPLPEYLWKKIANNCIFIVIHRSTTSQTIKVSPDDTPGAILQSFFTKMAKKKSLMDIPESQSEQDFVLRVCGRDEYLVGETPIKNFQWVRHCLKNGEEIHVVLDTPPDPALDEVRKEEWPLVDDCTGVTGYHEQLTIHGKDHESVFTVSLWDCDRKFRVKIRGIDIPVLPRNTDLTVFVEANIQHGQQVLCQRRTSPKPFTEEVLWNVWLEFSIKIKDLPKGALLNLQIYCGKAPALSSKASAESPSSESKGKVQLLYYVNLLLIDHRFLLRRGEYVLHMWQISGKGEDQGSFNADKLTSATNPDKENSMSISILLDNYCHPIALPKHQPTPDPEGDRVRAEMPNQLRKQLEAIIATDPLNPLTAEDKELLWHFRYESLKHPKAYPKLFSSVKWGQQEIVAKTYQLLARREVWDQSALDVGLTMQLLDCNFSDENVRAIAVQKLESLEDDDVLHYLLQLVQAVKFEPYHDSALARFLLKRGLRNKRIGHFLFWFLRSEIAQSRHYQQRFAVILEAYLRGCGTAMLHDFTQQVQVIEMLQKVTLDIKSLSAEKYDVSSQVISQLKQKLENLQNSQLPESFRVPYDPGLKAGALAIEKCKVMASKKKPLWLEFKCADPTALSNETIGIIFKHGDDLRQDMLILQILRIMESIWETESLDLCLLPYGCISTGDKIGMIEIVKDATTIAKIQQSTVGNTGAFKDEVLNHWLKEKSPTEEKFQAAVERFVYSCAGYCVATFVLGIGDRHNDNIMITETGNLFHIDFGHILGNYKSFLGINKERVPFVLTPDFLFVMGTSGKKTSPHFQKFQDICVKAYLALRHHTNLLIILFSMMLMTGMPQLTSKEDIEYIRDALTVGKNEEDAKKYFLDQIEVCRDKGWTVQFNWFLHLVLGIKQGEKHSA
Sequence of p110α/p85α (P42336 whole entry): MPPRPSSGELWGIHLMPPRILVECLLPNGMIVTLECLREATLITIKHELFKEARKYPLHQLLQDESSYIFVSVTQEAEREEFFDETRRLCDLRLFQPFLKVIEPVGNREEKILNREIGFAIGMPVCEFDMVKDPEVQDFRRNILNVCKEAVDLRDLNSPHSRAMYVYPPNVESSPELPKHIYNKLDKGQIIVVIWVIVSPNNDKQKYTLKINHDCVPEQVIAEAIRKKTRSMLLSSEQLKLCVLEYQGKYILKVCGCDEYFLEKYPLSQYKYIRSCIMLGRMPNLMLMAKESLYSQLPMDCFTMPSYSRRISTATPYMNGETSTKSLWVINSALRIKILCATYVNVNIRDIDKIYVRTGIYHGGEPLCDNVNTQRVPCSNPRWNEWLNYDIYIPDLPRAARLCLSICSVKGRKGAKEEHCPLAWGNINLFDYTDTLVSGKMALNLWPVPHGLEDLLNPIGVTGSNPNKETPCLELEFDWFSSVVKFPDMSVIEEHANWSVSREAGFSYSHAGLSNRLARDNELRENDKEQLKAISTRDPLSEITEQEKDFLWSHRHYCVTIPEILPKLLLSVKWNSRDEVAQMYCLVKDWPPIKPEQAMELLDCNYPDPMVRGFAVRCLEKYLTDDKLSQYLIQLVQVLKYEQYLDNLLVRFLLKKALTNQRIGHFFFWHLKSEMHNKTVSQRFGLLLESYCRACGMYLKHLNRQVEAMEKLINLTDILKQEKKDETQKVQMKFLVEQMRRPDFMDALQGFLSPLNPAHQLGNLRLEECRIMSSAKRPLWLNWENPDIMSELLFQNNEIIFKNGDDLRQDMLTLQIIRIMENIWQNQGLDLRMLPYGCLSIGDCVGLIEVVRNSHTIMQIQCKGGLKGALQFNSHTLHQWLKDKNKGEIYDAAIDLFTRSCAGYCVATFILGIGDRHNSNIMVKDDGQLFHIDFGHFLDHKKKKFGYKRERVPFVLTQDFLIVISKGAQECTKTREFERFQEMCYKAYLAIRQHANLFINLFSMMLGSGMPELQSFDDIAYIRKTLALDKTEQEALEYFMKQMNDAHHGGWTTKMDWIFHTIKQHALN
Sequence of p110α/p85α (P27986 whole entry partner): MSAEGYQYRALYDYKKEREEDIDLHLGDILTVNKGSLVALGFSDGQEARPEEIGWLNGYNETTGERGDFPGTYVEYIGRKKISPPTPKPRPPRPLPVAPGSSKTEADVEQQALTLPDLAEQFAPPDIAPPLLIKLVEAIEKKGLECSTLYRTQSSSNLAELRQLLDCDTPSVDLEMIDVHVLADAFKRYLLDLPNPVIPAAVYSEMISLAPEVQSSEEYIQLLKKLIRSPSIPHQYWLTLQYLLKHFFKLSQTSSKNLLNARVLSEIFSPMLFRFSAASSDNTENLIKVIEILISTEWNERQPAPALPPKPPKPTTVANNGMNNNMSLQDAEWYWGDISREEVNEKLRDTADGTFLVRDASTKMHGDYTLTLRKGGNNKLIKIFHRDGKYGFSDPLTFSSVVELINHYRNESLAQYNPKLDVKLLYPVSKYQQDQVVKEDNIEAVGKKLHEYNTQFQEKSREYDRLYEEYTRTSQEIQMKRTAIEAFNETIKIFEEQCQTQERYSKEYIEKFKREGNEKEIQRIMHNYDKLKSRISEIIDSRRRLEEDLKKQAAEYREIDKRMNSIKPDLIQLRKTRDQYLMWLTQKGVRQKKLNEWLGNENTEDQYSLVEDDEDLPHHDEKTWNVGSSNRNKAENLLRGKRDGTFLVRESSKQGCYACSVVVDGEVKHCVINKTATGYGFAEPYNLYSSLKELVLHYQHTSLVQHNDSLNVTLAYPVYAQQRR
Sequence of p110β/p85α (P42338 whole entry, looked up): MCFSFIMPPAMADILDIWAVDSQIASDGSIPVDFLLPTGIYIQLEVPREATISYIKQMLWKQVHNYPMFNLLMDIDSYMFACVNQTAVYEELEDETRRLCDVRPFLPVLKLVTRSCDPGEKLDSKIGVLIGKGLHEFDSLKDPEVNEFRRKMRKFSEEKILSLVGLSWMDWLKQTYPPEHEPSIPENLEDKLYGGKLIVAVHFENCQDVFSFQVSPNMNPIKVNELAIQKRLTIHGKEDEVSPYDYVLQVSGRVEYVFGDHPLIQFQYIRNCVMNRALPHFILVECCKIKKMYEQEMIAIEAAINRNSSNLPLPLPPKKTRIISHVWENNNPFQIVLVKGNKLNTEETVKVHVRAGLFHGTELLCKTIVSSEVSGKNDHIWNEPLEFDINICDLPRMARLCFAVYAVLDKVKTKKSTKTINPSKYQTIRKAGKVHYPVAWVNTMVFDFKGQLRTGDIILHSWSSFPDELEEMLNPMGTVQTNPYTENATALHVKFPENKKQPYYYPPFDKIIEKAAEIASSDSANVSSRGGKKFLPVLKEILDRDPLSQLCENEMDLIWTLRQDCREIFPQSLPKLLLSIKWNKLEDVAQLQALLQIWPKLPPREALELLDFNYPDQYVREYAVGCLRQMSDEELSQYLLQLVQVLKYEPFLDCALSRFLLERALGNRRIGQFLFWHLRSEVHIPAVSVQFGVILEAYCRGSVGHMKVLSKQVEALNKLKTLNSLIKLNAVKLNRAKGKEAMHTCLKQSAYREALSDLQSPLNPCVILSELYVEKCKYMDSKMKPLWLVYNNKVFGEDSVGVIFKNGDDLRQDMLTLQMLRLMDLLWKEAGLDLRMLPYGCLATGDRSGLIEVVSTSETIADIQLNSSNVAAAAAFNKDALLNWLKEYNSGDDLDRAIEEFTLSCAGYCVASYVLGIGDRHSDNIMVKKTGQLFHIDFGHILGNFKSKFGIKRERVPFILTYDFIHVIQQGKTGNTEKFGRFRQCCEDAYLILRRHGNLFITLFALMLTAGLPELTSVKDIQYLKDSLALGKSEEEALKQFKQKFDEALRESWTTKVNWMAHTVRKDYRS
Sequence of p110δ/p85α (O00329 whole entry): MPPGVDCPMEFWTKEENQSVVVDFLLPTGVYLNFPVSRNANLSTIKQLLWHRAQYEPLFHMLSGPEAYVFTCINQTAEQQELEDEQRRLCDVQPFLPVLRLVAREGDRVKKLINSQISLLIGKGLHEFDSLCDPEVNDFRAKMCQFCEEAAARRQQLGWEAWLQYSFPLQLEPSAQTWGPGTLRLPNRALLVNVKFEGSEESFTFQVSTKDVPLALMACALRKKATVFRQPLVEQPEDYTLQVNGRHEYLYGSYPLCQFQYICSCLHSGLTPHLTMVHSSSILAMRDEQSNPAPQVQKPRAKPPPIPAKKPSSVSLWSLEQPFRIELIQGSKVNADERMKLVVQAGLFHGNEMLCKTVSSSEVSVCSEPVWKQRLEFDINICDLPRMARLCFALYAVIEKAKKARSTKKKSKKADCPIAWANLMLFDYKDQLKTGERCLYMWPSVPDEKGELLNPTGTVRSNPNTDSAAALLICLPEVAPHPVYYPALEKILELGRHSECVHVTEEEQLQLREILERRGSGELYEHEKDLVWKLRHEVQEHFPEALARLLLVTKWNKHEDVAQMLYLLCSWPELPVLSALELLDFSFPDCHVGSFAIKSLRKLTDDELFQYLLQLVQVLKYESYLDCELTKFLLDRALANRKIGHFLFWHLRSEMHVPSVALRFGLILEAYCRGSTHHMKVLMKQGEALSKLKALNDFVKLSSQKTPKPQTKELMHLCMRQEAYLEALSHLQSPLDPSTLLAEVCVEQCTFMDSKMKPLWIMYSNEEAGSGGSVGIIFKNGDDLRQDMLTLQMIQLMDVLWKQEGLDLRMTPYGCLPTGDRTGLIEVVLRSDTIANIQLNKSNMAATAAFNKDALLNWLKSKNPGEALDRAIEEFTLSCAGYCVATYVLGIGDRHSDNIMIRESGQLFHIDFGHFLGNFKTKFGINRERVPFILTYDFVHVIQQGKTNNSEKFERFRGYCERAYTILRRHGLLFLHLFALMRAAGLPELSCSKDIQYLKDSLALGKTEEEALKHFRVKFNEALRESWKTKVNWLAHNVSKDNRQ
Sequence of p110δ/p85α (P27986 whole entry partner): as the sequence (P27986 whole entry partner) above

Structure (SMILES) | IC50 [1] | IC50 [2] | IC50 [3] | EC50 [4] | IC50 [5]
CN1CCN(c2nc3ccccc3nc2Cn2nc(-c3ccc4nc(N)sc4c3)c3c(N)ncnc32)CC1 [Compound 199] | < 100 nM | < 100 nM | 100 to 1000 nM | < 100 nM | < 100 nM
CN1CCN(c2nc3ccccc3cc2Cn2nc(-c3cccc(O)c3)c3c(N)ncnc32)CC1 [Compound 43] | < 100 nM | 100 to 1000 nM | > 1000 nM | 100 to 1000 nM | > 1000 nM
Nc1ncnc2c1c(-c1cccc(O)c1)nn2Cc1cc2ccccc2nc1N1CCOCC1 [Compound 64] | < 100 nM | > 1000 nM | > 1000 nM | < 100 nM | 100 to 1000 nM
Nc1nc2ccc(-c3nn(Cc4cc5ccccc5nc4-c4ccccc4)c4ncnc(N)c34)cc2s1 [Compound 94] | < 100 nM | > 1000 nM | > 1000 nM | 100 to 1000 nM | < 100 nM
Nc1ncc2cc(-c3nn(Cc4cc5ccccc5nc4-c4ccccc4)c4ncnc(N)c34)ccc2n1 [Compound 143] | < 100 nM | > 1000 nM | 100 to 1000 nM | < 100 nM | < 100 nM
Cc1cccc2cc(Cn3nc(I)c4c(N)ncnc43)c(N3CCCC3)nc12 [Compound 6] | < 100 nM | > 1000 nM | > 1000 nM | 100 to 1000 nM | > 1000 nM
CC(c1cc2ccccc2nc1N1CCN(C)CC1)n1nc(-c2cccc(O)c2)c2c(N)ncnc21 (centres unmarked) [Compound 72] | < 100 nM | 100 to 1000 nM | > 1000 nM | < 100 nM | > 1000 nM
Nc1ncnc2ccc(-c3nn(Cc4cc5ccccc5nc4-c4ccccc4)c4ncnc(N)c34)cc12 [Compound 146] | < 100 nM | > 1000 nM | > 1000 nM | 100 to 1000 nM | < 100 nM
CC(c1cc2ccccc2nc1-c1ccccc1)n1nc(-c2cccc(O)c2)c2c(N)ncnc21 (centres unmarked) [Compound 59] | < 100 nM | > 1000 nM | > 1000 nM | < 100 nM | 100 to 1000 nM
CN1CCN(c2nc3ccccc3cc2Cn2nc(-c3ccc4cc(N)sc4c3)c3c(N)ccnc32)CC1 [Compound 80] | < 100 nM | < 100 nM | < 100 nM | < 100 nM | < 100 nM
CC(C)c1ccccc1-c1nc2ccccc2cc1Cn1nc(-c2cc(O)cc(F)c2)c2c(N)ncnc21 [Compound 17] | < 100 nM | 100 to 1000 nM | 100 to 1000 nM | < 100 nM | < 100 nM
CCN(CC)c1nc2ccccc2cc1Cn1nc(-c2cc(O)cc(F)c2)c2c(N)ncnc21 [Compound 68] | < 100 nM | 100 to 1000 nM | > 1000 nM | < 100 nM | 100 to 1000 nM
Nc1ncnc2ccc(-c3nn(Cc4cc5ccccc5nc4N4CCOCC4)c4ncnc(N)c34)cc12 [Compound 142] | < 100 nM | > 1000 nM | 100 to 1000 nM | < 100 nM | < 100 nM
Nc1ncnc2c1c(-c1cc(O)cc(F)c1)nn2Cc1cc2ccccc2nc1N1CCCC1 [Compound 2] | < 100 nM | 100 to 1000 nM | > 1000 nM | < 100 nM | < 100 nM
CC(C)N(C)c1nc2ccccc2cc1Cn1nc(-c2cc(O)cc(F)c2)c2c(N)ncnc21 [Compound 52] | < 100 nM | 100 to 1000 nM | 100 to 1000 nM | < 100 nM | 100 to 1000 nM
CC(C)Oc1nc2ccccc2cc1Cn1nc(-c2cc(O)cc(F)c2)c2c(N)ncnc21 [Compound 156] | < 100 nM | > 1000 nM | > 1000 nM | 100 to 1000 nM | 100 to 1000 nM
CN1CCN(CCc2nc3ccccc3cc2Cn2nc(-c3cc(O)cc(F)c3)c3c(N)ncnc32)CC1 [Compound 168] | < 100 nM | 100 to 1000 nM | > 1000 nM | < 100 nM | > 1000 nM
Nc1ccc2cc(-c3nn(Cc4cc5ccccc5nc4-c4ccccc4)c4ncnc(N)c34)ccc2n1 [Compound 144] | < 100 nM | > 1000 nM | 100 to 1000 nM | < 100 nM | < 100 nM
Cc1ccccc1-c1nc2ccccc2cc1Cn1nc(I)c2c(N)ncnc21 [Compound 3] | < 100 nM | > 1000 nM | > 1000 nM | 100 to 1000 nM | 100 to 1000 nM

Structure (SMILES) | IC50 [1] | IC50 [2] | IC50 [3] | EC50 [4] | IC50 [5]
Cc1ccncc1-c1nc2ccccc2cc1Cn1nc(-c2cccc(O)c2)c2c(N)ncnc21 [Compound 78] | < 100 nM | > 1000 nM | > 1000 nM | 100 to 1000 nM | > 1000 nM
Nc1nc2cc(-c3nn(Cc4cc5ccccc5nc4N4CCCC4)c4ncnc(N)c34)ccc2[nH]1 [Compound 153] | < 100 nM | 100 to 1000 nM | < 100 nM | 100 to 1000 nM | < 100 nM
CC(=O)Nc1nc2ccc(-c3nn(Cc4cc5ccccc5nc4OC(C)C)c4ncnc(N)c34)cc2s1 [Compound 157] | 100 to 1000 nM | > 1000 nM | > 1000 nM | > 1000 nM | > 1000 nM
CC(=O)Nc1nc2ccc(-c3nn(Cc4cc5ccccc5nc4-c4ccccc4C)c4ncnc(N)c34)cc2s1 [Compound 84] | < 100 nM | > 1000 nM | > 1000 nM | < 100 nM | < 100 nM
CC(c1cc2ccccc2nc1N1CCN(C)CC1)n1nc(-c2cc(O)cc(F)c2)c2c(N)ncnc21 (centres unmarked) [Compound 73] | < 100 nM | < 100 nM | > 1000 nM | < 100 nM | > 1000 nM
Nc1ncc2cc(-c3nn(Cc4cc5ccccc5nc4N4CCOCC4)c4ncnc(N)c34)ccc2n1 [Compound 139] | < 100 nM | < 100 nM | < 100 nM | < 100 nM | < 100 nM
Cc1ccccc1-c1nc2c(C)cccc2cc1Cn1nc(I)c2c(N)ncnc21 [Compound 7] | < 100 nM | > 1000 nM | > 1000 nM | 100 to 1000 nM | < 100 nM
CC(C)N1CCN(c2nc3ccccc3cc2Cn2nc(-c3cc(O)cc(F)c3)c3c(N)ncnc32)CC1 [Compound 69] | < 100 nM | > 1000 nM | > 1000 nM | < 100 nM | > 1000 nM
Nc1nc2ccc(-c3nn(Cc4cc5ccccc5nc4CCN4CCCC4)c4ncnc(N)c34)cc2s1 [Compound 167] | < 100 nM | 100 to 1000 nM | < 100 nM | < 100 nM | < 100 nM
Cc1ccccc1-c1nc2c(C)cccc2cc1Cn1nc(-c2cc(O)cc(F)c2)c2c(N)ncnc21 [Compound 8] | < 100 nM | > 1000 nM | > 1000 nM | < 100 nM | < 100 nM
Nc1nc2cc(-c3nn(Cc4cc5ccccc5nc4N4CCOCC4)c4ncnc(N)c34)ccc2o1 [Compound 141] | < 100 nM | > 1000 nM | 100 to 1000 nM | < 100 nM | < 100 nM
CC(=O)Nc1nc2ccc(-c3nn(Cc4cc5ccccc5nc4N(C)C)c4ncnc(N)c34)cc2s1 [Compound 130] | < 100 nM | < 100 nM | < 100 nM | < 100 nM | < 100 nM
Cc1cn(-c2nc3ccccc3cc2Cn2nc(-c3ccc4nc(N)sc4c3)c3c(N)ncnc32)cn1 [Compound 176] | < 100 nM | > 1000 nM | 100 to 1000 nM | < 100 nM | 
Nc1nc2ccc(-c3nn(Cc4cc5ccccc5nc4N4CCOCC4)c4ncnc(N)c34)cc2s1 [Compound 129] | < 100 nM | 100 to 1000 nM | < 100 nM | < 100 nM | < 100 nM
Nc1ncc(-c2nn(Cc3cc4ccccc4nc3-c3ccccc3F)c3nccc(N)c23)cn1 [Compound 158] | > 1000 nM | > 1000 nM | > 1000 nM | > 1000 nM | > 1000 nM
CC(=O)Nc1nc2ccc(-c3nn(Cc4cc5ccccc5nc4N4CCCC4C)c4ncnc(N)c34)cc2s1 (centres unmarked) [Compound 186] | < 100 nM | > 1000 nM | 100 to 1000 nM | < 100 nM | 
Cc1nccn1-c1cc2ccccc2cc1Cn1nc(-c2ccc3nc(N)sc3c2)c2c(N)ncnc21 [Compound 175] | < 100 nM | > 1000 nM | 100 to 1000 nM | < 100 nM | 
Cc1cccc2cc(Cn3nc(-c4cc(O)cc(F)c4)c4c(N)ncnc43)c(N3CCCC3)nc12 [Compound 9] | < 100 nM | > 1000 nM | > 1000 nM | < 100 nM | 
Cc1cccc2cc(Cn3nc(-c4cccc(O)c4)c4c(N)ncnc43)c(N3CCCC3)nc12 [Compound 10] | < 100 nM | > 1000 nM | > 1000 nM | 100 to 1000 nM | 

Reference: US9790228B2, “Heterocyclic kinase inhibitors” (Intellikine LLC, priority 2008, dated 2017)
